# Data taken from US8461085B2, “Bioherbicide from Festuca spp” (Cornell Research Foundation, Inc., priority 2005, dated 2013).
# Read-outs that look alike come from different tables or passages of the source.
# Legend:
# Velvetleaf = experiment: Weed and crop Petri dish bioassay, radicle length; format: in vivo, Abutilon theophrasti Medicus
# Procedure: (§1) m-Tyrosine activity was bioassayed using selected weed and crop species. Growth inhibition as measured by radicle elongation was evaluated in dandelion (Taraxacum officinale Weber in […].), large crabgrass (Digitaria sanguinalis (L.) Scop.), velvetleaf (Abutilon theophrasti Medicus), black medic (Medicago lupulina L.), curly cress (Lepidium sativum L.), bamyardgrass (Echinochloa crus-galli.(L.) Beauv.), lettuce (Lactuca sativa L.), purslane (Portulaca oleracea L.), annual bluegrass (Poa annua L.), birdsfoot trefoil (Lotus corniculatus L.), broadleaf plantain (Plantago major L.), mouseear chickweed (Cerastium vulgatum L.), common chickweed (Stellaria media (L.) Vill.), white clover (Trifolium repens L.), wheat (Triticum aestivum L.), tomato (Lycopersicon esculentum var. esculentum P. Mill.), tobacco (Nicotiana tobacum L.), and sorghum sudangrass hybrid (Sorghum bicolor x Sudanese). Weeds were purchased from HerbiSeeds, England, tomato seeds were purchased from Agway (Ithaca N.Y.), and wheat, sudex and tobacco where donated by Pioneer Seeds (Johnson, Iowa). Seeds were sterilized by a water: ethanol mixture (1:1) for one minute and rinsed three times thoroughly in distilled water. […] At the end of the incubation period, radicle length was measured. […]
# Escherichia coli = experiment: Antibacterial disc assay; format: cell-based
# Procedure: (§2) m-Tyrosine was evaluated for its effect on several bacteria (Bacillus cereus, Bacillus subtilis, and Escherichia coli) grown on nutrient agar (Difco) plates (9 cm) and a fungal culture (Metarhizium anisopliae ([…].)) grown on potato dextrose agar (Difco) plates. These plates were spread with either 0.5 mL aliquots of a liquid bacterial culture grown for 18 h in nutrient broth or with 0.5 mL of a fungal spore suspension (1×10^6 spores/mL), and were allowed to dry for approximately 30 minutes. […] A disc moistened with 10 μl of water served as negative control, and positive controls consisted of discs spiked with ampicillin and tetracycline (5 μg). The plates were placed in an incubator at 25° C., and visually checked for zones of inhibition for up to four days. All experiments were performed in triplicate.
# Bacillus subtilis = experiment: Antibacterial disc assay; format: cell-based
# Procedure: as §2
# Bacillus cereus = experiment: Antibacterial disc assay; format: cell-based
# Procedure: as §2
# [1] = system: selected monocot and dicot plants; experiment: General phytotoxicity Petri dish bioassay, weed and crop species taken together; format: in vivo
# Procedure: Using the Petri dish bioassay described above, various weed and crop species were tested for their susceptibility to m-tyrosine. Concentrations evaluated were 10, 20, 40, 80, 160, and 320 μM m-tyrosine dissolved in water.
# (§3) m-Tyrosine activity was bioassayed using selected weed and crop species. Growth inhibition as measured by radicle elongation was evaluated in dandelion (Taraxacum officinale Weber in Weggers.), large crabgrass (Digitaria sanguinalis (L.) Scop.), velvetleaf (Abutilon theophrasti Medicus), black medic (Medicago lupulina L.), curly cress (Lepidium sativum L.), bamyardgrass (Echinochloa crus-galli.(L.) Beauv.), lettuce (Lactuca sativa L.), purslane (Portulaca oleracea L.), annual bluegrass (Poa annua L.), birdsfoot trefoil (Lotus corniculatus L.), broadleaf plantain (Plantago major L.), mouseear chickweed (Cerastium vulgatum L.), common chickweed (Stellaria media (L.) Vill.), white clover (Trifolium repens L.), wheat (Triticum aestivum L.), tomato (Lycopersicon esculentum var. esculentum P. Mill.), tobacco (Nicotiana tobacum L.), and sorghum sudangrass hybrid (Sorghum bicolor x Sudanese). Weeds were purchased from HerbiSeeds, England, tomato seeds were purchased from Agway (Ithaca N.Y.), and wheat, sudex and tobacco where donated by Pioneer Seeds (Johnson, Iowa). Seeds were sterilized by a water: ethanol mixture (1:1) for one minute and rinsed three times thoroughly in distilled water. The simple phytotoxicity bioassay utilized consisted of the evaluation of radicle length of ten sterilized seeds of each weed/crop deposited on a filter paper containing the appropriate m-tyrosine test solution in 4.5 cm Petri dishes. The amino acid analog, m-tyrosine was purchased from Sigma and formulated at concentrations of 0, 20, 40, 80, 160 and 320 μM by initially dissolving in aqueous solutions. A 1000 μL aliquot of the appropriate test solution was added to individual Petri dishes lined with Whatman No. 1 filter paper. Control dishes received 1000 μL of water. After seeds were placed on moistened filter paper, Petri dishes were transferred to a controlled environment with a light regime of 45,33 photon m^−2 s^−1 and maintained at an average temperature of 25° C. for 7 days. At the end of the incubation period, radicle length was measured. Treatments were replicated three times, and the experiment for each plant species tested was repeated three times.
# [2] = system: Arabidopsis thaliana seedlings; experiment: Arabidopsis root growth inhibition in growth media; format: in vivo; conditions: Arabidopsis thaliana; applied to the growth media; mixture of D and L m-tyrosine; read-out: concentration reducing root length of Arabidopsis by 50%
# Black Medic = experiment: Weed and crop Petri dish bioassay, radicle length; format: in vivo, Medicago lupulina L.
# Procedure: as §1
# Common Chickweed = experiment: Weed and crop Petri dish bioassay, radicle length; format: in vivo, Stellaria media (L.) Vill.
# Procedure: as §1
# Birdsfoot trefoil = experiment: Weed and crop Petri dish bioassay, radicle length; format: in vivo, Lotus corniculatus L.
# Procedure: as §1
# Sudex = experiment: Weed and crop Petri dish bioassay, radicle length; format: in vivo, Sorghum bicolor x Sudanese
# Procedure: as §1
# Tomato = experiment: Weed and crop Petri dish bioassay, radicle length; format: in vivo, Lycopersicon esculentum var. esculentum P. Mill.
# Procedure: as §3, with “[…].),” for “Weggers.),”, “The amino acid analog, m-tyrosine was purchased from Sigma and formulated at concentrations of 0, 20, 40, 80, 160 and 320 μM by initially dissolving in aqueous solutions.” left out, “m^-2 s^-1” for “m^−2 s^−1”
# Mouseear chickweed = experiment: Weed and crop Petri dish bioassay, radicle length; format: in vivo, Cerastium vulgatum L.
# Procedure: as §3, with “[…].),” for “Weggers.),”, “The amino acid analog, m-tyrosine was purchased from Sigma and formulated at concentrations of 0, 20, 40, 80, 160 and 320 μM by initially dissolving in aqueous solutions.” left out, “m^-2 s^-1” for “m^−2 s^−1”
# Arabidopsis = experiment: Weed and crop Petri dish bioassay, radicle length; format: in vivo, Arabidopsis thaliana L.
# [3] = system: Metarhizium anisopliae (Metsch.); experiment: Fungal disc assay; format: cell-based; conditions: even at concentrations as high as 25 mM
# Procedure: as §2
# Broadleaf Plantain = experiment: Weed and crop Petri dish bioassay, radicle length; format: in vivo, Plantago major L.
# Procedure: as §1
smiles,measurement,setting,value
"N[C@@H](Cc1cccc(O)c1)C(=O)O [m-tyrosine, 3-hydroxyphenylalanine]",I10,Velvetleaf,40 µM
same,IC50,"Velvetleaf; Abutilon theophrasti, read-out: I50",168 µM
same,growth inhibition,Escherichia coli,not inhibited
same,growth inhibition,Bacillus subtilis,not inhibited
same,growth inhibition,Bacillus cereus,not inhibited
same,effect on shoot elongation,[1]; in vivo,inhibitory to shoot elongation
same,effect on seed germination,[1]; numerous seedling indicators,did not affect seed germination per se
same,IC50,"[1]; range over all plants exposed, read-out: concentration required to observe 50% inhibition of radicle elongation",10 to 260 µM
same,IC50,"[1]; range over other species evaluated (apart from mouseear chickweed), read-out: concentration for 50% inhibition of radicle elongation",14 to 253 µM
same,IC50,[2],2 µM
same,I10,Black Medic,40 µM
same,IC50,"Black Medic; Medicago lupulina, read-out: I50",84 µM
same,I10,Common Chickweed,80 µM
same,I100,Common Chickweed,320 µM
same,I10,Birdsfoot trefoil,20 µM
same,IC50,"Birdsfoot trefoil; Lotus corniculatus, read-out: I50",42 µM
same,I10,Sudex,50 µM
same,IC50,"Sudex; Sorghum bicolor, read-out: I50",151 µM
same,I10,Tomato,35 µM
same,I100,Tomato,160 µM
same,IC50,"Tomato; Solanum lycopersicum, read-out: I50",75 µM
same,I10,Mouseear chickweed,6 µM
same,I100,Mouseear chickweed,47 µM
same,IC50,"Mouseear chickweed; Cerastium, read-out: I50",9 µM
same,I10,Arabidopsis,6 µM
same,I100,Arabidopsis,50 µM
same,IC50,"Arabidopsis; Arabidopsis thaliana, read-out: I50",15 µM
same,sensitivity of fungal cultures,[3],not sensitive
same,I10,Broadleaf Plantain,30 µM
same,IC50,"Broadleaf Plantain; Plantago major, read-out: I50",72 µM
